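Each compound was tested at five concentrations against cells in 96-well plates for 48 hours. TGI: concentration producing complete growth inhibition.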
Experiments:
Assay in all cases: NCI-60 cell line screen, 48 h
SF-295 CNS = test system: SF-295 CNS
MOLT-4 leukemia = test system: MOLT-4 leukemia
NCI-H460 lung = test system: NCI-H460 lung
RXF 393 renal = test system: RXF 393 renal
K-562 leukemia = test system: K-562 leukemia
SN12C renal = test system: SN12C renal
786-0 renal = test system: 786-0 renal
SK-MEL-5 melanoma = test system: SK-MEL-5 melanoma
EKVX NSCLC = test system: EKVX NSCLC
ACHN renal = test system: ACHN renal
COLO 205 colon = test system: COLO 205 colon
OVCAR-3 ovarian = test system: OVCAR-3 ovarian
TK-10 renal = test system: TK-10 renal
HOP-92 NSCLC = test system: HOP-92 NSCLC
SR leukemia = test system: SR leukemia
SK-MEL-2 melanoma = test system: SK-MEL-2 melanoma
T-47D breast = test system: T-47D breast
MDA-MB-231 breast = test system: MDA-MB-231 breast
DU-145 prostate = test system: DU-145 prostate

Structure (SMILES)	TGI (SF-295 CNS) [µM]	TGI (MOLT-4 leukemia) [µM]	TGI (NCI-H460 lung) [µM]	TGI (RXF 393 renal) [µM]	TGI (K-562 leukemia) [µM]	TGI (SN12C renal) [µM]	TGI (786-0 renal) [µM]	TGI (SK-MEL-5 melanoma) [µM]	TGI (EKVX NSCLC) [µM]	TGI (ACHN renal) [µM]	TGI (COLO 205 colon) [µM]	TGI (OVCAR-3 ovarian) [µM]	TGI (TK-10 renal) [µM]	TGI (HOP-92 NSCLC) [µM]	TGI (SR leukemia) [µM]	TGI (SK-MEL-2 melanoma) [µM]	TGI (T-47D breast) [µM]	TGI (MDA-MB-231 breast) [µM]	TGI (DU-145 prostate) [µM]
CC1OC(n2ccc(=O)[nH]c2=O)C=C(OC(=O)c2ccccc2)C1=O (centres undefined)	> 100	> 100	> 100	> 100	> 100	> 100	> 100	> 100	> 100	> 100	> 100	53.4	> 100	99.6	–	–	–	–	–
COc1ccc2c(c1)C(=O)N1CCOC1C2C(=O)O (centres undefined)	29.8	> 100	> 100	–	> 100	> 100	> 100	> 100	> 100	> 100	–	> 100	> 100	> 100	> 100	–	–	–	–
N#CC(C(=O)/C(=N/NC(=O)c1ccccc1O)C(C#N)c1ccccc1)c1ccccc1 (centres undefined)	> 100	–	> 100	> 100	–	> 100	> 100	–	> 100	> 100	> 100	> 100	> 100	> 100	–	> 100	–	–	–
COc1ccc(NC(=O)CC(=O)N2N=C(N(CCC#N)c3ccccc3Cl)CC2c2ccccc2)cc1 (centres undefined)	> 100	> 100	> 100	> 100	> 100	> 100	> 100	> 100	> 100	> 100	> 100	> 100	> 100	> 100	> 100	> 100	–	–	–
CN(C)CCC(O)(c1ccccc1)C(O)(CCN(C)C)c1ccccc1 (centres undefined)	> 100	> 100	> 100	–	> 100	> 100	> 100	> 100	> 100	> 100	> 100	> 100	> 100	–	–	> 100	–	–	–
CCOc1ccc(NC(=O)C2=C(C)NC(C)=C(C(=O)Nc3ccc(OCC)cc3)C2c2ccc(O)c(OC)c2)cc1	> 100	> 100	> 100	> 100	> 100	> 100	> 100	> 100	> 100	> 100	> 100	> 100	> 100	53.9	–	> 100	–	–	–
CCCOC(=O)C1CCC(=O)N1C(=O)C(C)Cl (centres undefined)	> 100	> 100	> 100	–	> 100	> 100	> 100	> 100	> 100	> 100	> 100	> 100	> 100	> 100	–	> 100	–	–	–
CC(C)CC[C@H](O)[C@@H](C)[C@H]1[C@@H](OC2OC(C)C(O)C(O)C2O)C[C@H]2[C@@H]3CC=C4C[C@@H](O)CC[C@]4(C)[C@H]3[C@@H](O)C[C@]12C (some centres undefined)	0.222	0.508	> 100	> 100	0.422	> 100	> 100	> 58	> 100	> 100	7.17	> 100	> 100	6.7	–	> 100	> 100	> 100	> 100
CCOCN1COCN=C1NC#N	> 100	> 100	> 100	34.7	> 100	> 100	> 100	> 100	> 100	> 100	69.7	> 100	> 100	> 100	76.5	> 100	–	–	–
N#CCCN(c1ccc(/C=C2\N=C(Cc3ccccc3)OC2=O)cc1)S(=O)(=O)c1ccccc1	> 100	> 100	> 100	> 100	> 100	> 100	> 100	> 100	> 100	> 100	> 100	> 100	> 100	–	–	> 100	–	–	–
CC(=O)O[C@]12CCCCC1C1(O)C(O)CCCCC12 (some centres undefined)	> 100	> 100	> 100	> 100	> 100	> 100	> 100	> 100	> 100	> 100	> 100	–	> 100	–	> 100	> 100	–	–	–
C#CCNC(=O)NCCCC(NC(C)=O)C(=O)NCc1ccccc1 (centres undefined)	> 100	> 100	> 100	> 100	> 100	> 100	> 100	> 100	> 100	> 100	> 100	> 100	> 100	> 100	> 100	–	–	–	–
COC(=O)C1CCC(Nc2ccc(C)cc2C)=N1 (centres undefined)	> 100	> 100	> 100	–	> 100	> 100	> 100	> 100	> 100	> 100	> 100	> 100	> 100	> 100	–	> 100	–	–	–
N#CC(/C(=N/NC(=O)C(=O)NN)C(=O)Nc1nc([N+](=O)[O-])cs1)c1ccc(Cl)cc1 (centres undefined)	> 100	> 100	> 100	> 100	–	> 100	> 100	> 100	> 100	> 100	> 100	> 100	> 100	> 100	–	> 100	–	–	–
Cn1c2c(c3ccccc31)CCN(CCN1CCN(c3ccccc3)CC1)C2=O	> 100	> 100	> 100	83.4	> 100	> 100	> 100	> 100	> 100	> 100	> 100	–	> 100	96.5	–	–	–	–	–
O=C(CC(=O)Nc1cccc(Cl)c1)NNCC(=O)Nc1nnc(-c2ccccc2)s1	> 100	> 100	> 100	–	> 100	> 100	84.3	> 100	> 100	> 100	> 100	> 100	> 100	–	> 100	> 100	–	–	–
COc1ccc(/C(Cl)=C(/c2ccc(O)cc2)c2ccc(OCCN(C)C)cc2)cc1	16.3	–	26	18.4	–	26.2	18.8	16.9	30.3	27.8	22.4	28.8	34.1	–	10.6	22.4	–	–	–
CCOC(=O)[C@]12C(=C(c3ccccc3)O[C@H]3C=CCC[C@H]31)C(=O)C(=O)N2c1ccccc1	> 100	61.3	> 100	> 100	84.5	> 100	> 100	> 100	–	> 100	> 100	> 100	> 100	–	46.8	> 100	> 100	> 100	> 100
Nc1nc(NCCO)c(N=O)c(=O)[nH]1	> 100	–	> 100	> 100	> 100	> 100	> 100	> 100	> 100	> 100	> 100	> 100	> 100	> 100	–	> 100	–	–	–
COC(=O)[C@@H]1C=C[C@H](OC2OC(COC(C)=O)C(OC(C)=O)C(OC(C)=O)C2OC(C)=O)n2c(=O)c3ccccc3c(=O)n21 (some centres undefined)	53.9	41.1	29	20.1	24.5	–	58.9	30.2	30.5	24.1	22.4	22.2	18.3	23.7	> 100	24.5	20.9	–	38.3
NC(=O)C#CC#CC#CCO	11.6	2.67	19.3	3.66	4.65	3.76	2.93	3.78	–	2.61	2.65	3.49	3.01	3.83	4.54	4.9	–	–	–
CCOc1ccc(NC(=O)C(=O)NO)cc1	> 100	> 100	> 100	> 100	> 100	> 100	> 100	> 100	> 100	> 100	> 100	> 100	> 100	> 100	> 100	> 100	–	–	–
O=C1[C@@H]2C(c3ccc(Cl)cc3Cl)=NO[C@@H]2C(=O)N1c1ccc(Cc2ccc(N3C(=O)[C@H]4C(c5ccc(Cl)cc5Cl)=NO[C@H]4C3=O)cc2)cc1	> 100	> 100	–	68.8	> 100	> 100	> 100	> 100	> 100	–	> 100	> 100	> 100	41.4	–	> 100	–	–	–
Cc1ccccc1C1OC(=O)c2ccccc21 (centres undefined)	–	> 100	> 100	> 100	> 100	> 100	> 100	> 100	> 100	> 100	> 100	> 100	> 100	–	> 100	> 100	–	–	–
CCOC(=O)N1C2C=C(C)C(ON2C(=O)c2ccccc2)C2C(C)C(=O)N21 (centres undefined)	> 100	> 100	> 100	> 100	> 100	> 100	> 100	> 100	> 100	> 100	> 100	> 100	> 100	> 100	> 100	> 100	–	–	–
NC(=O)c1cccc(C2OC(COP(=O)(O)O)C(O)C2O)c1 (centres undefined)	> 50	> 50	> 50	> 50	> 50	> 50	> 50	> 50	> 50	> 50	> 50	> 50	> 50	–	–	> 50	–	–	–
Nc1ccc2nc(NCc3ccc(F)cc3)cnc2c1	> 100	> 100	> 100	> 100	> 100	> 100	> 100	> 100	> 100	> 100	> 100	> 100	> 100	–	> 100	> 100	–	–	–
C=[N+](CNC(=O)CNC(=O)C(Cc1ccc([N+](=O)[O-])cc1)NC(=O)OC(C)(C)C)C(=O)CNC(=O)C(Cc1ccc([N+](=O)[O-])cc1)NC(=O)OC(C)(C)C (centres undefined)	> 100	67.4	> 100	> 100	> 100	> 100	> 100	> 100	> 100	> 100	> 100	> 100	> 100	> 100	80.6	–	–	59	> 100
CCCCCCCc1cc(OC(=O)c2c(C)cc(OC)cc2O)cc(O)c1C(=O)O	50	88.3	36	52.2	> 100	82.9	36.8	40.7	77	62.8	37.3	28.7	90.2	41.8	–	36.9	–	–	–
COc1ccccc1/C=C(\C#N)C(=O)c1ccccc1	> 100	> 100	> 100	–	> 100	> 100	> 100	> 100	> 100	> 100	> 100	> 100	–	> 100	> 100	> 100	–	–	–
